Values after ≈ are worked out from the molar mass of the structure shown.
Legend:
Vero [1] = assay: Minimal inhibitory concentration (MIC) required to reduce Sindbis in virus in Vero cells; format: functional; settings: Chlorocebus sabaeus
E6SM [2] = assay: Minimal inhibitory concentration (MIC) required to reduce TK(Thymidine kinase)-HSV-1 (B2006) cytopathicity in E6SM cells; format: functional; settings: Homo sapiens
E6SM [3] = assay: Minimal inhibitory concentration (MIC) required to reduce TK-HSV-1 (VMW 1837) cytopathicity in E6SM cells; format: functional; settings: Homo sapiens
MDCK [4] = assay: Minimal inhibitory concentration (MIC) required to reduce Influenza B virus in MDCK cells; format: functional; settings: Canis lupus familiaris
E6SM [5] = assay: cells; settings: Homo sapiens
E6SM [6] = assay: Minimal inhibitory concentration (MIC) required to reduce HSV(herpes simplex virus)-2 cytopathicity E6SM cells; format: functional; settings: Homo sapiens
Vero [7] = assay: Minimal inhibitory concentration (MIC) required to reduce Parainfluenza-3 virus in Vero cells; format: functional; settings: Chlorocebus sabaeus
E6SM [8] = assay: Minimal inhibitory concentration (MIC) required to reduce HSV(herpes simplex virus)-1 (KOS) cytopathicity in E6SM cells; format: functional; settings: Homo sapiens
HEL [9] = assay: Minimal inhibitory concentration (MIC) required to reduce CMV (cytomegalo virus) (AD-169) in HEL cells; format: functional, Homo sapiens
Vero [10] = assay: Minimal inhibitory concentration (MIC) required to reduce Junin virus in Vero cells; format: functional; settings: Chlorocebus sabaeus
HEL [11] = assay: Minimal inhibitory concentration (MIC) required to reduce VZV (varicella zoster virus) (OKA) in HEL cells; format: functional; settings: Homo sapiens
HeLa [12] = assay: Minimal inhibitory concentration (MIC) required to reduce VSV in HeLa cells; format: functional; settings: Homo sapiens
HEL [13] = assay: Minimal inhibitory concentration (MIC) required to reduce VZV (YS) in HEL cells; format: functional; settings: Homo sapiens
Vero [14] = assay: Minimal inhibitory concentration (MIC) required to reduce forest virus in Vero cells; format: functional; settings: Chlorocebus sabaeus
MDCK [15] = assay: Minimal inhibitory concentration (MIC) required to reduce Influenza A virus in MDCK cells; format: functional; settings: Canis lupus familiaris
Vero [16] = assay: Minimal inhibitory concentration (MIC) required to reduce Tacaribe virus in Vero cells; format: functional; settings: Chlorocebus sabaeus
[17] = test system: Respiratory syncytial virus; assay: Minimal inhibitory concentration (MIC) required to reduce RSV (long) in HeLa cells; format: functional; settings: human respiratory syncytial virus
Vero [18] = assay: Minimal inhibitory concentration (MIC) required to reduce Reovirus-1 in Vero cells; format: functional; settings: Chlorocebus sabaeus
E6SM [19] = assay: cells; settings: Homo sapiens; remark: listed apart in the source
HeLa [20] = assay: Minimal inhibitory concentration (MIC) required to reduce coxsackie B4 in HeLa cells; format: functional; settings: Homo sapiens
HeLa [21] = assay: Minimal inhibitory concentration (MIC) required to reduce Polio-1 in HeLa cells; format: functional; settings: Homo sapiens
MDCK [22] = assay: Minimal inhibitory concentration (MIC) required to reduce Influenza B in MDCK cells; format: functional; settings: Canis lupus familiaris
MT4 [23] = assay: Minimal inhibitory concentration (MIC) required to reduce HIV-2 in MT-4 cells; format: functional; settings: Homo sapiens
MT4 [24] = assay: Minimal inhibitory concentration (MIC) required to reduce HIV(human immunodeficiency virus)-1 in MT-4 cells; format: functional
HEL [25] = assay: Minimal inhibitory concentration (MIC) required to reduce CMV (Davis) in HEL cells; format: functional; settings: Homo sapiens

## Nc1nccc2c1ncn2[C@@H]1C[C@H](CO)[C@@H](O)[C@H]1O [3-DEAZAARISTEROMYCIN A]
Vero [1]
  MIC50: 4 µg/mL (≈ 15.1 µM)
E6SM [2]
  MIC50: > 400 µg/mL
E6SM [3]
  MIC50: > 400 µg/mL
MDCK [4]
  MIC50: > 30 µg/mL
E6SM [5]
  MIC50: 1 µg/mL (≈ 3.78 µM)
E6SM [6]
  MIC50: > 400 µg/mL
Vero [7]
  MIC50: > 1 µg/mL
E6SM [8]
  MIC50: > 400 µg/mL
HEL [9]
  MIC50: 7 µg/mL (≈ 26.5 µM)
HEL [9]; Homo sapiens, read-out: MIC50
  MIC50: > 7 µg/mL
Vero [10]
  MIC50: 7 µg/mL (≈ 26.5 µM)
HEL [11]
  MIC50: > 40 µg/mL
HeLa [12]
  MIC50: > 7 µg/mL
HEL [13]
  MIC50: > 40 µg/mL
Vero [14]
  MIC50: > 400 µg/mL
MDCK [15]
  MIC50: > 100 µg/mL
Vero [16]
  MIC50: 7 µg/mL (≈ 26.5 µM)
[17]
  MIC50: 100 µg/mL (≈ 378 µM)
Vero [18]
  MIC50: 2 µg/mL (≈ 7.57 µM)
E6SM [19]
  MIC50: 1 µg/mL (≈ 3.78 µM)
HeLa [20]
  MIC50: > 400 µg/mL
HeLa [21]
  MIC50: > 400 µg/mL

## Nc1ncnc2c1ncn2[C@@H]1C[C@@H](O)[C@@H](O)[C@H]1O
MDCK [22]
  MIC50: > 200 µg/mL
Vero [1]
  MIC50: > 200 µg/mL
E6SM [2]
  MIC50: 200 µg/mL (≈ 796 µM)
MT4 [23]
  MIC50: > 0.8 µg/mL
E6SM [3]
  MIC50: 200 µg/mL (≈ 796 µM)
MT4 [24]
  MIC50: > 0.8 µg/mL
E6SM [5]
  MIC50: 0.1 µg/mL (≈ 0.398 µM)
E6SM [6]
  MIC50: 300 µg/mL (≈ 1190 µM)
HEL [25]
  MIC50: 3 µg/mL (≈ 11.9 µM)
Vero [7]
  MIC50: 0.04 µg/mL (≈ 0.159 µM)
E6SM [8]
  MIC50: > 300 µg/mL
HEL [9]; Homo sapiens, read-out: MIC50
  MIC50: 5 µg/mL (≈ 19.9 µM)
Vero [10]
  MIC50: 30 µg/mL (≈ 119 µM)
HEL [11]
  MIC50: 6 µg/mL (≈ 23.9 µM)
HeLa [12]
  MIC50: > 0.2 µg/mL
HEL [13]
  MIC50: 1 µg/mL (≈ 3.98 µM)
Vero [14]
  MIC50: > 200 µg/mL
MDCK [15]
  MIC50: > 200 µg/mL
Vero [16]
  MIC50: 27 µg/mL (≈ 107 µM)
[17]
  MIC50: 100 µg/mL (≈ 398 µM)
Vero [18]
  MIC50: 0.3 µg/mL (≈ 1.19 µM)
E6SM [19]
  MIC50: 0.2 µg/mL (≈ 0.796 µM)
HeLa [20]
  MIC50: > 400 µg/mL
HeLa [21]
  MIC50: > 400 µg/mL

## Nc1ncnc2c1ncn2[C@@H]1C=C(CO)[C@@H](O)[C@H]1O [NEOPLANOCIN A]
Vero [1]
  MIC50: 2 µg/mL (≈ 7.6 µM)
E6SM [2]
  MIC50: 20 µg/mL (≈ 76 µM)
E6SM [3]
  MIC50: 70 µg/mL (≈ 266 µM)
MDCK [4]
  MIC50: > 3 µg/mL
E6SM [5]
  MIC50: 0.2 µg/mL (≈ 0.76 µM)
E6SM [6]
  MIC50: > 100 µg/mL
Vero [7]
  MIC50: 0.2 µg/mL (≈ 0.76 µM)
E6SM [8]
  MIC50: 70 µg/mL (≈ 266 µM)
HEL [9]
  MIC50: 0.4 µg/mL (≈ 1.52 µM)
HEL [9]; Homo sapiens, read-out: MIC50
  MIC50: 0.6 µg/mL (≈ 2.28 µM)
Vero [10]
  MIC50: 1 µg/mL (≈ 3.8 µM)
HEL [11]
  MIC50: 6 µg/mL (≈ 22.8 µM)
HeLa [12]
  MIC50: 2 µg/mL (≈ 7.6 µM)
HEL [13]
  MIC50: 1 µg/mL (≈ 3.8 µM)
Vero [14]
  MIC50: 7 µg/mL (≈ 26.6 µM)
MDCK [15]
  MIC50: 1 µg/mL (≈ 3.8 µM)
Vero [16]
  MIC50: 1 µg/mL (≈ 3.8 µM)
[17]
  MIC50: > 1 µg/mL
Vero [18]
  MIC50: 0.7 µg/mL (≈ 2.66 µM)
E6SM [19]
  MIC50: 2 µg/mL (≈ 7.6 µM)
HeLa [20]
  MIC50: > 40 µg/mL
HeLa [21]
  MIC50: > 40 µg/mL
